Assay results reported in US20040097515A1, “Antimicrobial drug reduced in effect on heart” (priority 2001, published 2004).
Entries after “also recorded” stand apart in the source; their conditions may differ.

What was measured:
[1] = tested on: guinea pig right ventricular myocardium sample; assay: APD prolonging effect, action potential of guinea pig right ventricular myocardium sample; assay type: cell-based; conditions: for relative strength of APD prolonging effect, Tukey test / APD prolonging effect (rate of change in APD90 with respect to the initial value), Average: after 60 minute-exposure; for relative strength of APD prolonging effect, Tukey test: statistically significant difference; for relative strength of APD prolonging effect: at each of the measured points; for myocardial action potential duration, effect of exposure: exposed for 10 minutes or more, paired t-test; for APD prolonging effect (rate of change in APD90 with respect to the initial value), Average: Dose 100 (μM)
Method: Slc: Hartley male guinea pigs (body weight: 322 to 667 g each) were employed as subjects.
Each of compound (I), compound (II), and gatifloxacin was dissolved in an aqueous 1% lactic acid solution, to thereby prepare a 10 mM solution. The resultant solution was employed as a drug solution.
Measurement of action potential was performed as follows. Specifically, the heart was quickly removed from each of the guinea pigs, and in a nutrition solution (Krebs-Henseleit) aerated with 95% O2+5% CO2 at room temperature, the right ventricular free wall was dissected to thereby prepare a myocardium sample. By use of an injection needle and platinum bipolar electrodes for electric stimulation, the sample was horizontally fixed onto a silicon block within a 20 ml organ bath (maintained at 36.5±0.5° C.) perfused with the nutrition solution aerated with 95% O2+5% CO2. During the test, the sample was electrically stimulated at a frequency of 1 Hz by means of rectangular pulses (voltage: about 1.3 times the threshold at which contraction of the sample is initiated, duration: 1 msec) provided from an electrostimulator via the platinum bipolar electrodes. The action potential of the cells was measured via glass microelectrodes (electrode resistance: 5 to 30 MΩ) which were filled with a 3 M KCl solution and connected to an amplifier for microelectrodes, and the action potential was recorded and analyzed by use of a computer. After electrical stimulation of the sample was continued for one hour or more, the action potential was measured before administration of the drug solution, and 10, 20, 30, 40, 50, and 60 minutes after administration of the drug solution. At each point in time, the action potential was measured and recorded in triplicate, and the average of the measured potentials was taken as the value for that point in time.
The drug solution (200 μL) was added to the 20 mL organ bath by use of a micropipette (final concentration of the drug solution in the bath: 100 μM). On the basis of the thus-measured action potential waveform, resting membrane potential (RMP), overshoot (OS), action potential amplitude (APA), action potential durations at 20%, 50%, and 90% repolarization (APD20, APD50, and APD90), and maximum rising velocity (Vmax) were obtained.
In each of the groups, the paired t-test was performed on the initial value of APD90 and on the action potential measured at each of the aforementioned points in time. Also, time-course variance analysis was performed, and the action potential after the 60 minute-exposure of the sample to the drug solution was subjected to the Tukey test, to thereby perform comparison between the groups. The level of significance was set at 5%, two-sided.

[2] = tested on: E. Coli, NIHJ; assay: Antimicrobial activity, standard method of Japanese Society of Chemotherapy; assay type: cell-based
Method: (§1) The antimicrobial activity of the thus-obtained compound was measured by means of the standard method of Japanese Society of Chemotherapy.

[3] = tested on: E. faecalis, 19433; assay: as above; assay type: cell-based
Method: as §1

[4] = tested on: P. aeruginosa, 32104; assay: as above; assay type: cell-based
Method: as §1

[5] = tested on: P. aeruginosa, 32121; assay: as above; assay type: cell-based
Method: as §1

[6] = tested on: P. vulgaris 08601; assay: as above; assay type: cell-based
Method: as §1

[7] = tested on: S. aureus, FDA 209-P; assay: as above; assay type: cell-based
Method: as §1

[8] = tested on: S. epidermidis, 56500; assay: as above; assay type: cell-based
Method: as §1

[9] = tested on: S. marcescens, 101000; assay: as above; assay type: cell-based
Method: as §1

[10] = Japanese Journal of Chemotherapy, Volume 47, 1999; cited from earlier work
[11] = Japanese Journal of Chemotherapy, Volume 47, 1999; cited from earlier work; remark: listed apart in the source
[12] = 100 μM, Time 10 (minutes after administration)
[13] = 100 μM, Time 20 (minutes after administration)
[14] = 100 μM, Time 30 (minutes after administration)
[15] = 100 μM, Time 40 (minutes after administration)
[16] = 100 μM, Time 50 (minutes after administration)
[17] = 100 μM, Time 60 (minutes after administration)
[18] = Time 0, initial value before administration of the drug solution

## COc1c(N2CCN[C@@H](C)C2)c(F)cc2c(=O)c(C(=O)O)cn(C3CC3)c12 [Compound (I), 1-Cyclopropyl-6-fluoro-1,4-dihydro-8-methoxy-7-{3-(S)-methylpiperazin-1-yl}-4-oxoquinoline-3-carboxylic acid]
[1]; 100 μM
  strength of APD prolonging effect compared with gatifloxacin and the antipode: significantly lower APD prolonging effect; also recorded: lower than that of the prolonging effect of gatifloxacin or compound (II)
  relative strength of APD prolonging effect, Tukey test: compound (II)>gatifloxacin>compound (I)
  relative strength of APD prolonging effect: compound (II)>gatifloxacin>compound (I)
  myocardial action potential duration, effect of exposure: significantly prolonged
[1]; [12]
  myocardial action potential duration (APD90), Average: 175.7500
[1]; [13]
  myocardial action potential duration (APD90), Average: 180.2217
[1]; [14]
  myocardial action potential duration (APD90), Average: 184.2600
[1]; [15]
  myocardial action potential duration (APD90), Average: 190.6275
[1]; [16]
  myocardial action potential duration (APD90), Average: 192.0675
[1]; [17]
  myocardial action potential duration (APD90), Average: 193.5025
[1]
  APD prolonging effect (rate of change in APD90 with respect to the initial value), Average: 11.2206
[1]; [18]
  myocardial action potential duration (APD90), Average: 170.3200
[2]
  antimicrobial activity: ≦0.003
[3]
  antimicrobial activity: 0.39
[4]
  antimicrobial activity: 0.20
[5]
  antimicrobial activity: 0.10
[6]
  antimicrobial activity: 0.006
[7]
  antimicrobial activity: 0.05
[8]
  antimicrobial activity: 0.20
[9]
  antimicrobial activity: 0.10
[10]
  antimicrobial activity, difference between the antipodes: no great difference
[11]
  pharmacokinetic action in the body, difference between the antipodes: no great difference

## COc1c(N2CCN[C@H](C)C2)c(F)cc2c(=O)c(C(=O)O)cn(C3CC3)c12 [Compound (II), 1-Cyclopropyl-6-fluoro-1,4-dihydro-8-methoxy-7-{3-(R)-methylpiperazin-1-yl}-4-oxoquinoline-3-carboxylic acid]
[1]; [12]
  myocardial action potential duration (APD90), Average: 185.9917
[1]; [13]
  myocardial action potential duration (APD90), Average: 191.9500
[1]; [14]
  myocardial action potential duration (APD90), Average: 194.2750
[1]; [15]
  myocardial action potential duration (APD90), Average: 205.5900
[1]; [16]
  myocardial action potential duration (APD90), Average: 203.1350
[1]; [17]
  myocardial action potential duration (APD90), Average: 206.9400
[1]; 100 μM
  relative strength of APD prolonging effect, Tukey test: compound (II)>gatifloxacin>compound (I)
  relative strength of APD prolonging effect: compound (II)>gatifloxacin>compound (I)
  myocardial action potential duration, effect of exposure: significantly prolonged
[1]
  APD prolonging effect (rate of change in APD90 with respect to the initial value), Average: 17.1760
[1]; [18]
  myocardial action potential duration (APD90), Average: 176.1567
[10]
  antimicrobial activity, difference between the antipodes: no great difference
[11]
  pharmacokinetic action in the body, difference between the antipodes: no great difference

## COc1c(N2CCNC(C)C2)c(F)cc2c(=O)c(C(=O)O)cn(C3CC3)c12 (stereo not shown) [Gatifloxacin]
[1]; [12]
  myocardial action potential duration (APD90), Average: 180.6120
[1]; [13]
  myocardial action potential duration (APD90), Average: 184.9200
[1]; [14]
  myocardial action potential duration (APD90), Average: 192.2467
[1]; [15]
  myocardial action potential duration (APD90), Average: 190.8950
[1]; [16]
  myocardial action potential duration (APD90), Average: 201.5533
[1]; [17]
  myocardial action potential duration (APD90), Average: 196.4925
[1]; 100 μM
  relative strength of APD prolonging effect, Tukey test: compound (II)>gatifloxacin>compound (I)
  relative strength of APD prolonging effect: compound (II)>gatifloxacin>compound (I)
  myocardial action potential duration, effect of exposure: significantly prolonged
[1]
  APD prolonging effect (rate of change in APD90 with respect to the initial value), Average: 13.7789
[1]; [18]
  myocardial action potential duration (APD90), Average: 174.8600
